From US20230021483A1, “[…] […] METHOD AND CLASSIFICATION OF PHARMACEUTICAL COMPONENTS BY USING TRANSCRIPTOMES” (National Institutes of Biomedical Innovation, Health and …, priority 2016, published 2023)
Values joined by “and” are separate entries in the source; they are usually repeats but may differ in a detail not shown here. Equal values may be shown once.

Experiments:
Type in all cases: in vivo, C57BL/6 mice
[1] = system: inguinal lymph nodes (LN); experiment: Whole organ transcriptome (GeneChip microarray) of draining inguinal lymph nodes 6 h after adjuvant administration: sDEGs, gene modules, hierarchical clustering; conditions: lymph node; on adjuvant group (cluster) in LN: key: G1 (interferon signaling); G2 (metabolism of lipids and lipoproteins); G3 (response to stress); G4 (response to wounding); G5 (phosphate-containing compound metabolic process); G6 (phagosome)
[2] = system: LV, SP and LNs; experiment: Whole organ transcriptome across organs (adjuvant gene space): gene responses and adjuvant grouping
[3] = system: preferentially upregulated genes in LV, SP, LN; experiment: Z-score-based differential gene expression analysis (adjuvant group- or adjuvant-associated genes, 40 module mapping, TargetMine annotation); conditions: liver (LV); gene group G1, module 20; individual mice x1-x3; route ID/IP/IN
Summary of the method: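 Per-sample fold-change values converted to gene-wise z-scores within each organ's data set, then triplicate z-scores summed per adjuvant. Genes with summed score >3 taken as preferentially expressed; gene groups defined by combined per-adjuvant z-score thresholds (z>1 to z>3) specific to each organ.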

Substance: heptanoyl-γ-D-glutamyl-(L)-meso-diaminopimelyl-(D)-alanine [FK565]
- adjuvant group (cluster) in LN ([1]; hierarchical clustering): G3
- Number of gene probes with statistically significant changes (sDEGs), LN, Down ([1]; i.d. administration, fold change <0.667, p<0.01, customized PA call=1, 6 h after adjuvant): 306
- Number of gene probes with statistically significant changes (sDEGs), LN, Up ([1]; i.d. administration, fold change >1.5, p<0.01, customized PA call=1, 6 h after adjuvant): 526
- distribution/strength of gene responses between local LNs and systemic organs (LV, SP) ([2]; 6 h after i.d. (local) administration): greater responses in LV and SP than in LNs
- adjuvant group (cluster) within the adjuvant gene space ([2]; hierarchical clustering, LV, SP and/or LNs): G3
- Z score of gene expression, Adar (probe 1425405_a_at) [3]: −0.4 (2×) and −0.5
- Z score of gene expression, Adar (probe 1434268_at) [3]: −0.1
- Z score of gene expression, Ddx58 (probe 1436562_at) [3]: −0.2 (2×) and −0.3
- Z score of gene expression, Ddx58 (probe 1456890_at) [3]: −0.5 (2×) and −0.1
- Z score of gene expression, Eif2ak2 (probe 1422005_at) [3]: 0.05 and 0.09 and −0.1
- Z score of gene expression, G3bp2 (probe 1421323_a_at) [3]: −0.3 (2×) and −0.2
- Z score of gene expression, Gm9706///Isg15 (probe 1431591_s_at) [3]: −0.1 (2×) and −0.2
- Z score of gene expression, H2-T10///H2-T22///H2-T9 (probe 1449875_s_at) [3]: 0.21 and 0.04 and 0.29
- Z score of gene expression, Ifih1 (probe 1426276_at) [3]: −0.3
- Z score of gene expression, Ifit1 (probe 1449025_at) [3]: −0.4
- Z score of gene expression, Ifit1 (probe 1450783_at) [3]: −0.4
- Z score of gene expression, Irf7 (probe 1417244_a_at) [3]: −0.3 (2×) and −0.4
- Z score of gene expression, Irgm1 (probe 1418825_at) [3]: 0.07 and 0.13 and 0.08
- Z score of gene expression, Mndal (probe 1426906_at) [3]: −0.4 and −0.5 (2×)
- Z score of gene expression, Pml (probe 1448757_at) [3]: −0.5 and −0.6 and −0.8
- Z score of gene expression, Pml (probe 1456103_at) [3]: −0.5
- Z score of gene expression, Rnf213 (probe 1455500_at) [3]: 0.02 and 0.06 and 0.03
- Z score of gene expression, Rsad2 (probe 1436058_at) [3]: −0.4
- Z score of gene expression, Shisa5 (probe 1423986_a_at) [3]: −0.1 and 0.01 and 0.18
- Z score of gene expression, Shisa5 (probe 1437503_a_at) [3]: −0.2 and −0.3 and −0.1
- Z score of gene expression, Stat1 (probe 1450033_a_at) [3]: −0.1 and −0 and 0
- Z score of gene expression, Stat1 (probe 1450034_at) [3]: −0.1 (2×) and −0
- Z score of gene expression, Tdrd7 (probe 1426716_at) [3]: −0.5 (2×) and −0.4
- Z score of gene expression, Tor1aip2 (probe 1418115_s_at) [3]: −0.6 and −0.5 (2×)
- Z score of gene expression, Tor1aip2 (probe 1418116_at) [3]: −0.7 (2×) and −0.9
- Z score of gene expression, Tor1aip2 (probe 1435526_at) [3]: −0.8 and −0.9 (2×)
- Z score of gene expression, Trim12a (probe 1437432_a_at) [3]: 0.1 and −0.1 and −0.2
- Z score of gene expression, Uba7 (probe 1426970_a_at) [3]: −0.4 and −0.5 and −0.3
